Tests used:
Jurkat = experiment: Induction of apoptosis in human Jurkat T cells assessed as downregulation of Bcl2 expression at 10 uM after 48 hrs by Western blot analysis; type: functional
[1] = Drug internalization in HEK293 cells at 10 uM after 30 to 60 mins by inverted fluorescence microscopy; type: ADME, cell-based; settings: human, hek293, 10 µM
HEK293 = experiment: Cytotoxicity against HEK293 cells after 48 hrs by MTT assay; type: cell-based, Homo sapiens

SMILES | Activity (Jurkat) [%] | Drug uptake [1] | IC50 (HEK293; Homo sapiens, HEK293, 48 h) [µM] | Activity (HEK293; human, hek293, 48 h)
O=C(CS)NCCCCNc1ccc(O)c2c1C(=O)c1ccccc1C2=O | 40 |  |  | 
NCCCCNc1ccc(O)c2c1C(=O)c1ccccc1C2=O.O=C(O)C(F)(F)F |  | Active | 9.4 | Dose-dependent effect
O=C1c2c(O)ccc(O)c2C(=O)c2c(NCCNCCO)ccc(NCCNCCO)c21 [MITOXANTRONE] | 50 |  |  | 

From ChEMBL document CHEMBL4251586, “Design, synthesis and evaluation of an anthraquinone derivative conjugated to myelin basic protein immunodominant (MBP85-99) epitope: Towards selective immunosuppression” (Eur J Med Chem, 2018)
